{"source": "patent US7524868B2", "about": "“Substituted pyrazoline compounds, their preparation and use as medicaments” (Laboratorios Del Dr. Esteve, S.A., priority 2004, dated 2009)", "assay": "In-vivo testing for antiobesic activity", "settings": "rats", "key": {"[1]": {"settings": "10 mg/kg body weight daily intraperitoneally over 14 days"}}, "data": [{"smiles": "O=C(NN1CCCCC1)C1=NN(c2ccc(Cl)cc2Cl)C(c2ccc(Cl)cc2)C1", "note": "(stereo not drawn) [Example 1, N-piperidinyl-5-(4-chlorophenyl)-1-(2,4-dichlorophenyl)-4,5-dihydro-1H-pyrazole-3-carboxamide]", "values": [{"measurement": "body weight (FIG. 1)", "setting": "[1]", "value": "body weight is lowered"}, {"measurement": "food intake (FIG. 2)", "setting": "[1]", "value": "reduction of food intake"}, {"measurement": "body weight effect after the treatment is ended (FIG. 1)", "setting": "after end of 14 days of 10 mg/kg daily intraperitoneally", "value": "also observed after the treatment is ended"}]}]}
